Results: ChEMBL document CHEMBL1156893, “Structure-activity relationships amongst 4-position quinoline methanol antimalarials that inhibit the growth of drug sensitive and resistant strains of Plasmodium falciparum” (Bioorg Med Chem Lett, 2010)
In brackets after ≈: the same amount, converted by molar mass.

How the values were obtained:
Plasmodium falciparum [1] = assay: Antimalarial activity against Plasmodium falciparum TM90C2A; assay type: functional, organism-based
Plasmodium falciparum [2] = assay: Antimalarial activity against chloroquine and mefloquine-sensitive Plasmodium falciparum D6; assay type: functional
Plasmodium falciparum [3] = assay: Antimalarial activity against chloroquine-resistant and mefloquine-sensitive Plasmodium falciparum W2; assay type: functional, organism-based
Plasmodium falciparum [4] = assay: Antimalarial activity against chloroquine, pyrimethamine and mefloquine-resistant Plasmodium falciparum TM1C235; assay type: functional, organism-based
[5] = Cytotoxicity against mouse RAW264.7 cells; assay type: cell-based; settings: read-out: LC50 (the source's name)
[6] = Apparent permeability from apical to basolateral side of MDCK cell monolayer expressing MDR1; assay type: ADME, cell-based, Canis lupus familiaris; settings: dog
[7] = Half life in mouse liver microsomes; assay type: ADME, Microsome
Plasmodium berghei = assay: Antimalarial activity against Plasmodium berghei infected in ICR mice (Mus musculus) assessed as delay in mortality at 160 mg/kg, perorally for 3 days; assay type: functional, organism-based; set-up: dose 160 mg/kg

Compound	IC90 (Plasmodium falciparum [1])	IC90 (Plasmodium falciparum [2])	IC90 (Plasmodium falciparum [3])	IC90 (Plasmodium falciparum [4])	CC50 [5]	Papp A→B [6]	half-life [7]	IC50 (Plasmodium falciparum [1])	IC50 (Plasmodium falciparum [3])	IC50 (Plasmodium falciparum [4])	survival time (Plasmodium berghei)
OC(CNCCc1ccccc1)c1cc(C(F)(F)F)nc2c(C(F)(F)F)cccc12 (stereo not given)	0.023 mg/L (≈ 0.0537 µM)	0.019 mg/L (≈ 0.0444 µM)	0.023 mg/L (≈ 0.0537 µM)	0.043 mg/L (≈ 0.1 µM)	9.64 mg/L (≈ 22.5 µM)	–	–	–	–	–	–
CN(C)CC(O)c1cc(C(F)(F)F)nc2c(C(F)(F)F)cccc12 (stereo not given)	0.173 mg/L (≈ 0.491 µM)	0.02 mg/L (≈ 0.0568 µM)	0.069 mg/L (≈ 0.196 µM)	0.079 mg/L (≈ 0.224 µM)	24.6 mg/L (≈ 69.9 µM)	–	–	–	–	–	–
CCCCNCC(O)c1cc(C(F)(F)F)nc2c(C(F)(F)F)cccc12 (stereo not given)	0.012 mg/L (≈ 0.0316 µM)	0.002 mg/L (≈ 0.00526 µM)	0.001 mg/L (≈ 0.00263 µM)	0.009 mg/L (≈ 0.0237 µM)	2.96 mg/L (≈ 7.8 µM)	250 nm/s	–	–	–	–	–
CNCC(O)c1cc(C(F)(F)F)nc2c(C(F)(F)F)cccc12 (stereo not given)	–	0.017 mg/L (≈ 0.0503 µM)	0.045 mg/L (≈ 0.133 µM)	–	13.7 mg/L (≈ 40.4 µM)	240 nm/s	60 min	–	–	–	–
OC(CNc1ccccc1)c1cc(C(F)(F)F)nc2c(C(F)(F)F)cccc12 (stereo not given)	0.5 mg/L (≈ 1.25 µM)	0.484 mg/L (≈ 1.21 µM)	0.377 mg/L (≈ 0.942 µM)	0.437 mg/L (≈ 1.09 µM)	22.3 mg/L (≈ 55.7 µM)	–	–	–	–	–	–
CCN(CC)CC(O)c1cc(C(F)(F)F)nc2c(C(F)(F)F)cccc12 (stereo not given)	0.067 mg/L (≈ 0.176 µM)	0.009 mg/L (≈ 0.0237 µM)	0.026 mg/L (≈ 0.0684 µM)	0.037 mg/L (≈ 0.0973 µM)	2.09 mg/L (≈ 5.5 µM)	–	–	–	–	–	–
OC(c1cc(C(F)(F)F)nc2c(C(F)(F)F)cccc12)C1CCCCN1 (stereo not given) [MEFLOQUINE]	–	–	–	–	–	–	> 60 min	–	–	–	–
OC(CNCCF)c1cc(C(F)(F)F)nc2c(C(F)(F)F)cccc12 (stereo not given)	–	> 0.5 mg/L	–	–	–	–	–	> 0.5 mg/L	> 0.5 mg/L	> 0.5 mg/L	–
COCCNCC(O)c1cc(C(F)(F)F)nc2c(C(F)(F)F)cccc12 (stereo not given)	0.1 mg/L (≈ 0.262 µM)	0.015 mg/L (≈ 0.0392 µM)	0.059 mg/L (≈ 0.154 µM)	0.093 mg/L (≈ 0.243 µM)	38.2 mg/L (≈ 100 µM)	320 nm/s	–	–	–	–	–
CCCCCCNCC(O)c1cc(C(F)(F)F)nc2c(C(F)(F)F)cccc12 (stereo not given)	0.481 mg/L (≈ 1.18 µM)	0.124 mg/L (≈ 0.304 µM)	0.372 mg/L (≈ 0.911 µM)	0.409 mg/L (≈ 1 µM)	–	–	–	–	–	–	–
CCCCOCC(O)c1cc(C(F)(F)F)nc2c(C(F)(F)F)cccc12 (stereo not given)	–	> 0.5 mg/L	–	–	–	–	–	> 0.5 mg/L	> 0.5 mg/L	> 0.5 mg/L	–
OC(c1cc(C(F)(F)F)nc2c(C(F)(F)F)cccc12)C1CCCCN1 (racemic) [MEFLOQUINE]	–	–	–	–	–	94 nm/s	–	–	–	–	–
CCc1nc(C)cn1CC(O)c1cc(C(F)(F)F)nc2c(C(F)(F)F)cccc12 (stereo not given)	0.057 mg/L (≈ 0.137 µM)	0.069 mg/L (≈ 0.165 µM)	0.043 mg/L (≈ 0.103 µM)	0.056 mg/L (≈ 0.134 µM)	25.7 mg/L (≈ 61.6 µM)	–	22 min	–	–	–	–
CC(C)NCC(O)c1cc(C(F)(F)F)nc2c(C(F)(F)F)cccc12 (stereo not given)	–	0.005 mg/L (≈ 0.0136 µM)	–	0.023 mg/L (≈ 0.0628 µM)	5.2 mg/L (≈ 14.2 µM)	–	60 min	–	–	–	–
CCCCN(CCCC)CC(O)c1cc(C(F)(F)F)nc2c(C(F)(F)F)cccc12 (stereo not given)	0.019 mg/L (≈ 0.0435 µM)	0.002 mg/L (≈ 0.00458 µM)	0.011 mg/L (≈ 0.0252 µM)	0.027 mg/L (≈ 0.0619 µM)	20.1 mg/L (≈ 46 µM)	–	–	–	–	–	–
OC(Cn1cnc2ccccc21)c1cc(C(F)(F)F)nc2c(C(F)(F)F)cccc12 (stereo not given)	0.45 mg/L (≈ 1.06 µM)	0.12 mg/L (≈ 0.282 µM)	0.41 mg/L (≈ 0.964 µM)	0.48 mg/L (≈ 1.13 µM)	–	–	4 min	–	–	–	–
Cc1nc2ccccc2n1CC(O)c1cc(C(F)(F)F)nc2c(C(F)(F)F)cccc12 (stereo not given)	0.32 mg/L (≈ 0.728 µM)	0.11 mg/L (≈ 0.25 µM)	0.22 mg/L (≈ 0.501 µM)	0.31 mg/L (≈ 0.706 µM)	–	–	9 min	–	–	–	–
CCCN(CCC)CC(O)c1cc(C(F)(F)F)nc2c(C(F)(F)F)cccc12 (stereo not given)	0.03 mg/L (≈ 0.0735 µM)	0.005 mg/L (≈ 0.0122 µM)	0.02 mg/L (≈ 0.049 µM)	0.02 mg/L (≈ 0.049 µM)	33.2 mg/L (≈ 81.2 µM)	–	–	–	–	–	–
OCCNCC(O)c1cc(C(F)(F)F)nc2c(C(F)(F)F)cccc12 (stereo not given)	0.388 mg/L (≈ 1.05 µM)	0.26 mg/L (≈ 0.706 µM)	0.49 mg/L (≈ 1.33 µM)	0.485 mg/L (≈ 1.32 µM)	–	–	–	–	–	–	–
CC(C)c1nccn1CC(O)c1cc(C(F)(F)F)nc2c(C(F)(F)F)cccc12 (stereo not given)	–	> 0.5 mg/L	–	–	50.1 mg/L (≈ 120 µM)	–	10 min	> 0.5 mg/L	> 0.5 mg/L	> 0.5 mg/L	–
OC(CNCCNCc1ccccc1)c1cc(C(F)(F)F)nc2c(C(F)(F)F)cccc12 (stereo not given)	–	0.006 mg/L (≈ 0.0131 µM)	0.029 mg/L (≈ 0.0634 µM)	–	8.28 mg/L (≈ 18.1 µM)	84 nm/s	–	–	–	–	10 days
NCC(O)c1cc(C(F)(F)F)nc2c(C(F)(F)F)cccc12 (stereo not given)	> 0.5 mg/L	0.47 mg/L (≈ 1.45 µM)	0.4 mg/L (≈ 1.23 µM)	> 0.5 mg/L	8.07 mg/L (≈ 24.9 µM)	–	–	–	–	–	–
OC(CNCC(F)(F)F)c1cc(C(F)(F)F)nc2c(C(F)(F)F)cccc12 (stereo not given)	–	> 0.5 mg/L	–	–	32.1 mg/L (≈ 78.9 µM)	–	–	> 0.5 mg/L	> 0.5 mg/L	> 0.5 mg/L	–
CC(C)CNCC(O)c1cc(C(F)(F)F)nc2c(C(F)(F)F)cccc12 (stereo not given)	0.021 mg/L (≈ 0.0552 µM)	0.002 mg/L (≈ 0.00526 µM)	0.013 mg/L (≈ 0.0342 µM)	0.015 mg/L (≈ 0.0394 µM)	27.1 mg/L (≈ 71.3 µM)	–	27 min	–	–	–	–
CCCCCCC(O)c1cc(C(F)(F)F)nc2c(C(F)(F)F)cccc12 (stereo not given)	–	> 0.5 mg/L	–	–	–	–	–	> 0.5 mg/L	> 0.5 mg/L	> 0.5 mg/L	–
COCCCNCC(O)c1cc(C(F)(F)F)nc2c(C(F)(F)F)cccc12 (stereo not given)	0.086 mg/L (≈ 0.217 µM)	0.012 mg/L (≈ 0.0303 µM)	0.051 mg/L (≈ 0.129 µM)	0.084 mg/L (≈ 0.212 µM)	25.2 mg/L (≈ 63.5 µM)	–	–	–	–	–	–
CCCCSCC(O)c1cc(C(F)(F)F)nc2c(C(F)(F)F)cccc12 (stereo not given)	–	> 0.5 mg/L	–	–	–	–	–	> 0.5 mg/L	> 0.5 mg/L	> 0.5 mg/L	–
OC(CNCc1ccccc1)c1cc(C(F)(F)F)nc2c(C(F)(F)F)cccc12 (stereo not given)	0.151 mg/L (≈ 0.364 µM)	0.019 mg/L (≈ 0.0459 µM)	0.067 mg/L (≈ 0.162 µM)	0.086 mg/L (≈ 0.208 µM)	20.4 mg/L (≈ 49.3 µM)	–	–	–	–	–	–
CSCCCNCC(O)c1cc(C(F)(F)F)nc2c(C(F)(F)F)cccc12 (stereo not given)	–	0.01 mg/L (≈ 0.0242 µM)	0.036 mg/L (≈ 0.0873 µM)	–	8.62 mg/L (≈ 20.9 µM)	380 nm/s	–	–	–	–	–
CCCc1nccn1CC(O)c1cc(C(F)(F)F)nc2c(C(F)(F)F)cccc12 (stereo not given)	0.24 mg/L (≈ 0.575 µM)	0.36 mg/L (≈ 0.863 µM)	0.32 mg/L (≈ 0.767 µM)	0.25 mg/L (≈ 0.599 µM)	50.1 mg/L (≈ 120 µM)	–	8 min	–	–	–	–
